Assay results as given in patent publication US10053431B2, “Tetrahydro-benzodiazepinones” (priority 2013, dated 2018).
Where a name gives a salt, the structure may show the parent alone.

How the values were obtained:
[1] = target: BIR2 domain of XIAP (Homo sapiens (Human), UniProt P98170, C202A/C213G); test: TR-FRET assay for BIR2 (inhibition of binding of XIAP BIR2 domain to SMAC-derived Peptide A); conditions: 6x His-tagged BIR2 domain (aa 124-240 of XIAP) 10 nM, Peptide A 20 nM, TR-FRET; read-out: IC50 BIR2
BIR2 domain of XIAP, sequence (P98170 124-240 with tags or gaps C202A/C213G limits assumed): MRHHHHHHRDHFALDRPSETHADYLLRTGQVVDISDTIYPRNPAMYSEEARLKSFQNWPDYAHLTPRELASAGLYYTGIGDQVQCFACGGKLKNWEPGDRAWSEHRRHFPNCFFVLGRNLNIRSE

[2] = target: BIR3 domain of XIAP (Homo sapiens (Human), UniProt P98170); test: TR-FRET assay for BIR3 (inhibition of binding of XIAP BIR3 domain to SMAC-derived Peptide A); conditions: 6x His-tagged BIR3 domain (aa 241-356 of XIAP) 10 nM, Peptide A 20 nM, TR-FRET
BIR3 domain of XIAP, sequence (P98170 241-356 with tags or gaps limits assumed): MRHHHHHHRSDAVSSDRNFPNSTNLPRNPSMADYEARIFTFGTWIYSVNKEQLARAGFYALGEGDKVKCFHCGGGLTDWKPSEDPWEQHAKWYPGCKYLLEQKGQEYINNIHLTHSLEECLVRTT

`CN[C@@H](C)C(=O)N[C@H]1CN(C(=O)c2ccc(C(C)(C)O)cc2)c2ccccc2N(Cc2c(OC)ccc3cc(Br)ccc23)C1=O` [Example 95, (S)—N—{(S)-1-(6-Bromo-2-methoxy-naphthalen-1-ylmethyl)-5-[4-(1-hydroxy-1-methyl-ethyl)-benzoyl]-2-oxo-2,3,4,5-tetrahydro-1H-benzo[b][1,4]diazepin-3-yl}-2-methylamino-propionamide trifluoroacetate] was tested, and the IC50 [1] was 7 nM and the IC50 [2] was 36300 nM.

For `CN[C@@H](C)C(=O)N[C@H]1CN(C(=O)c2ccc(C(=O)OC)cc2)c2ccccc2N(Cc2c(C)ccc3ccccc23)C1=O` [Example 96a, 4-[(S)-3-((S)-2-Methylamino-propionylamino)-5-(2-methyl-naphthalen-1-ylmethyl)-4-oxo-2,3,4,5-tetrahydro-benzo[b][1,4]diazepine-1-carbonyl]-benzoic acid methyl ester hydrochloride], the IC50 [1] was 99 nM and the IC50 [2] was greater than 54800 nM.

`CN[C@@H](C)C(=O)N[C@H]1CN(C(=O)Cc2nnn[nH]2)c2ccccc2N(Cc2c(C)ccc3ccccc23)C1=O` [Example 96b] was tested, and the IC50 [1] was 71 nM and the IC50 [2] was 38800 nM.

With `CN[C@@H](C)C(=O)N[C@H]1CN(C(=O)CC2CCOCC2)c2ccccc2N(Cc2c(C)ccc3ccccc23)C1=O` [Example 96c] the IC50 [1] was 106 nM and the IC50 [2] was 28100 nM.

For `CN[C@@H](C)C(=O)N[C@H]1CN(C(=O)c2ccc(C#N)cc2)c2ccccc2N(Cc2c(C)ccc3ccccc23)C1=O` [Example 96d], the IC50 [1] was 46 nM and the IC50 [2] was greater than 54800 nM.

Work on `CN[C@@H](C)C(=O)N[C@H]1CN(C(=O)CC2CCCCC2)c2ccccc2N(Cc2c(C)ccc3ccccc23)C1=O` [Example 96e] yielded an IC50 [1] of 685 nM and an IC50 [2] greater than 54800 nM.

`CN[C@@H](C)C(=O)N[C@H]1CN(C(=O)Cc2cccnc2)c2ccccc2N(Cc2c(C)ccc3ccccc23)C1=O` [Example 96h] showed an IC50 [1] of 23 nM and an IC50 [2] of 13600 nM.

For `CN[C@@H](C)C(=O)N[C@H]1CN(C(=O)c2ccc(F)cc2)c2ccccc2N(Cc2c(C)ccc3ccccc23)C1=O` [Example 96i], the IC50 [1] was 30 nM and the IC50 [2] was 48000 nM.

Work on `CN[C@@H](C)C(=O)N[C@H]1CN(C(=O)c2ccc(C)cc2)c2ccccc2N(Cc2c(C)ccc3ccccc23)C1=O` [Example 96k] yielded an IC50 [1] of 38 nM and an IC50 [2] of 32200 nM.

In the case of `CN[C@@H](C)C(=O)N[C@H]1CN(C(=O)c2ccc(OC)cc2)c2ccccc2N(Cc2c(C)ccc3ccccc23)C1=O` [Example 96l], the IC50 [1] is reported as 37 nM and the IC50 [2] is reported as greater than 54800 nM.

Work on `CN[C@@H](C)C(=O)N[C@H]1CN(C(=O)c2ccc(C(=O)O)cc2)c2ccccc2N(Cc2c(C)ccc3ccccc23)C1=O` [Example 97, 4-[(S)-3-((S)-2-Methylamino-propionylamino)-5-(2-methyl-naphthalen-1-ylmethyl)-4-oxo-2,3,4,5-tetrahydro-benzo[b][1,4]diazepine-1-carbonyl]-benzoic acid hydrochloride] yielded an IC50 [1] of 100 nM and an IC50 [2] greater than 54800 nM.

With `CN[C@@H](C)C(=O)N[C@H]1CN(S(=O)(=O)NC)c2ccccc2N(Cc2c(C)ccc3ccccc23)C1=O` [Example 98b] the IC50 [1] was 188 nM and the IC50 [2] was greater than 54800 nM.

Compound `CN[C@@H](C)C(=O)N[C@H]1CN(S(=O)(=O)c2ccc([N+](=O)[O-])cc2)c2ccccc2N(Cc2c(C)ccc3ccccc23)C1=O` [Example 98d] has an IC50 [1] of 182 nM and an IC50 [2] of 29000 nM.

`CN[C@@H](C)C(=O)N[C@H]1CN(S(=O)(=O)c2ccccc2)c2ccccc2N(Cc2c(C)ccc3ccccc23)C1=O` [Example 98e] was tested, and the IC50 [1] was 133 nM and the IC50 [2] was 31600 nM.

With `CN[C@@H](C)C(=O)N[C@H]1CN(S(=O)(=O)c2ccc(OC)cc2)c2ccccc2N(Cc2c(C)ccc3ccccc23)C1=O` [Example 98f] the IC50 [1] was 177 nM and the IC50 [2] was greater than 50000 nM.

In the case of `CN[C@@H](C)C(=O)N[C@H]1CN(S(=O)(=O)N(C)C)c2ccccc2N(Cc2c(C)ccc3ccccc23)C1=O` [Example 100, (S)—N—[(S)-5-Dimethylsulfamoyl-1-(2-methyl-naphthalen-1-ylmethyl)-2-oxo-2,3,4,5-tetrahydro-1H-benzo[b][1,4]diazepin-3-yl]-2-methylamino-propionamide hydrochloride], the IC50 [1] is reported as 249 nM and the IC50 [2] is reported as greater than 54800 nM.
